Here are results for 25 molecules from US5985937A, “Use of 2,4-distributed phenol derivatives as 5-lipoxygenase inhibitors” (priority 1994, dated 1999).

One may read the inhibition as the relative decrease from the control value, in per cent.

Each structure is given as a SMILES string.

For data set [1], the target named is T1, 5-lipoxygenase (5-LO) (Homo sapiens, UniProt P09917).
T1 construct: endogenous in cells; host or cells: human polymorphonuclear leukocytes from donor blood
T1 sequence (P09917 1-674): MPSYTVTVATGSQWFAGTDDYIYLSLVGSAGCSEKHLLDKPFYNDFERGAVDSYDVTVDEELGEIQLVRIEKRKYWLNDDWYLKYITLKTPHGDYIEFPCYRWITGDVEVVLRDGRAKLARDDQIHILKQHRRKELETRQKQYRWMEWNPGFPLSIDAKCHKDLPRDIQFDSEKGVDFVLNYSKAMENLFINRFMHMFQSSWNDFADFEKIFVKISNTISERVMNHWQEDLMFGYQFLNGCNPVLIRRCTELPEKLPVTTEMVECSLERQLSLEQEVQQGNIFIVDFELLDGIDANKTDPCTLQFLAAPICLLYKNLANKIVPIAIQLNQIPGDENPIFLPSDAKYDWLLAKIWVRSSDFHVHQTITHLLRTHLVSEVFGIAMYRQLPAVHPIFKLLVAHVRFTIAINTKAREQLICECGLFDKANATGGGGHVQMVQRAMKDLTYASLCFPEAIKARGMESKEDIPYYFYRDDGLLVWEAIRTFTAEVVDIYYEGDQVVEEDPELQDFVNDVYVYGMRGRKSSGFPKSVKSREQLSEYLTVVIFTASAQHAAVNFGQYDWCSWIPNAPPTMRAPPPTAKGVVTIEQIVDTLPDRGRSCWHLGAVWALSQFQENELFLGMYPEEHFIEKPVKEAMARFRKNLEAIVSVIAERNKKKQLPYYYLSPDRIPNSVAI
Kind of data set: 5-LO inhibiting activity in human polymorphonuclear leukocytes ([14C]-arachidonic acid, A23187; HPLC of eicosanoids). In kind it is cell-based. The note with it: for 5-LO inhibiting activity of products of monoiodination of phenol (control tests): in words; for inhibition at 25 µM: 25 μM concentration, read-out: 5-LO inhibitory activity, approximate inhibition percentage; for concentration of biosynthesis products versus concentration of the drug: LTB4, 6-trans-LTB4, 5-HETE, 20-OH-LTB4, FIGS. 3 and 4; for IC50: human polymorphonuclear leukocytes, AA 10 μM, A23187 5 μM, average of five different peaks, read-out: IC50 (concentration of the drug which inhibits 50% of the AA converted by 5-LO). On the procedure:
In order to show the 5-LO inhibiting activity of the products of the present invention, a specific test based on human polymorphonuclear leukocytes is chosen.
5-LO Inhibiting Activity in Polymorphonuclear Leukocytes
Blood was obtained from donors which had not received medication during the ten days previous to the extraction. The blood was treated with an anticoagulant (ACD-A) and was centrifuged at 200 g during 12 min at room temperature, separating the supernatant. A solution of Dextran T-500 in physiological serum was added to the pellet, in order to obtain a final concentration of 0.6% w/v, and was allowed to sediment during 40 min. The supernatant was centrifuged at 180 g during 10 min at room temperature. The pellet was resuspended in 5 ml of Hank's buffer, pH 7.4. After the addition of 3 ml of Lymphoprep, the suspension was centrifuged at 450 g during 30 min, and the layers of supernatant were discarded. The next step was the lysis of the erythrocytes present by adding 2 ml of a saline solution. The resulting volume was adjusted to 10 ml with Hank's buffer, pH 7.4. The solution was centrifuged during 10 min at 180 g; the supernatant was discarded and the resulting pellet was resuspended in 1-2 ml of Hank's buffer, pH 7.4. The cellular density was determined using a haemocytometer using the procedure of microcollection Unopette to determine the levels of platelet contamination. Cellular density was adjusted to 2×10^7 cells/ml with Hank's buffer, pH 7.4 and CaCl2 was added to a final concentration of 1.5 mM.
Aliquots (0.5 ml) of the polymorphonuclear leukocytes suspensions, obtained as described in part (a), were incubated during 5 min at 37° C. in the absence (control) and in the presence of three different concentrations of each drug. Afterwards an ethanol solution of [^14 C]-arachidonic acid and A23187 ionophore was added to obtain a final concentration of 10 and 5 μM, respectively. After 5 min of incubation the reaction was stopped by addition of 0.5 ml of ice-cold ethanol. Samples were centrifuged during 2 min at 1500 g, and the supernatants were kept at -80° C. until analyzed. Controls were carried out using the polymorphonuclear leukocyte suspensions aliquots in the presence of the solvent (DMSO) only.
The analysis of the products from the transformation of arachidonic acid through the action of the lipoxygenase (these products being the eicosanoids) was carried out using high pressure liquid chromatography (HPLC), in a reverse phase column (Ultrasphere-ODS, Beckman), injecting 500 μl of the supernatants obtained from the incubations. Elution was carried out using an isocratic mix of mathanol:water:triethylamine:trifluoroacetic acid, 75:25:0.05:0.10, with a flux of 1 ml/min. Detection was carried out with a radioactivity detector with a liquid scintillation cell on-line coupled with the column.

Data set [2] concerns 5-LO. The note with it: background statement; cited from earlier work.
For data set [3], the system named is dioxygenases. The note with it: background statement; cited from earlier work.
For data set [4] the following is noted: background statement; cited from earlier work.

With `Oc1ccccc1I` [Bobel 2-iodophenol, 2-iodophenol, reference compound], the “5-LO inhibiting activity of products of monoiodination of phenol (control tests)” value (shortened to “5-LO inhibiting activity”) in data set [1] was “negligible activity”.

For the molecule `Oc1cccc(I)c1` [Bobel 3-iodophenol, 3-iodophenol, reference compound], the “5-LO inhibiting activity” value in data set [1] is on record as “negligible activity”.

For `Oc1ccc(I)cc1` [Bobel 4-iodophenol, 4-iodophenol, reference compound], the “5-LO inhibiting activity” value in data set [1] was “negligible activity”.

Regarding `CC(C)(C)c1ccc(O)c(I)c1` [Bobel-2, 4-tert-butyl-2-iodophenol], the inhibition at 25 µM in data set [1] turned out to be 80%.

Regarding `CC(C)(C)c1cc(I)ccc1O` [Bobel-3, 2-tert-butyl-4-iodophenol], in data set [1], the inhibition at 25 µM was determined as 96%.

For the molecule `CC(C)c1cc(I)cc(C(C)C)c1O` [Bobel-4, 2,6-diisopropyl-4-iodophenol], the inhibition at 25 µM in data set [1] came out at 94%.

Regarding `CCc1cc(I)cc(I)c1O` [Bobel-7, 2-ethyl-4,6-diiodophenol], the inhibition at 25 µM in data set [1] was found to be 74%.

Consider `CC(C)c1cc(I)cc(I)c1O` [Bobel-8, 2-isopropyl-4,6-diiodophenol], for which, in data set [1], the inhibition at 25 µM came to 95%.

In the case of `CC(C)(C)c1cc(I)cc(I)c1O` [Bobel-9, 2-tert-butyl-4,6-diiodofenol], the inhibition at 25 µM in data set [1] came out at 87%.

In the case of `Oc1c(Cl)cc(I)cc1I` [Bobel-10, 2-chloro-4,6-diiodophenol], in data set [1], the inhibition at 25 µM stood at 73%.

Take `Oc1c(Br)cc(I)cc1I` [Bobel-11, 2-bromo-4,6-diiodophenol]: the inhibition at 25 µM in data set [1] came out at 88%.

With `Oc1c(I)cc(I)cc1C(F)(F)F` [Bobel-12, 2-trifluoromethyl-4,6-diiodophenol], in data set [1], the inhibition at 25 µM was 97%.

For `CC(C)c1cc(I)c(O)c(I)c1` [Bobel-14, 4-isopropyl-2,6-diiodophenol], in data set [1], the inhibition at 25 µM was 85%.

As for `CC(C)(C)c1cc(I)c(O)c(I)c1` [Bobel-15, 4-tert-butyl-2,6-diiodophenol], the inhibition at 25 µM in data set [1] came to 85%.

`Oc1c(I)cc(-c2ccccc2)cc1I` [Bobel-16, 4-phenyl-2,6-diiodophenol]: the inhibition at 25 µM in data set [1] is 97%.

With `Oc1c(I)cc(Cl)cc1I` [Bobel-18, 4-chloro-2,6-diiodophenol], the inhibition at 25 µM in data set [1] was determined as 80%.

For the molecule `Oc1c(I)cc(C(F)(F)F)cc1I` [Bobel-20, 4-trifluoromethyl-2,6-diiodophenol], the inhibition at 25 µM in data set [1] was found to be 100%.

Take `Cc1c(I)cc(I)c(O)c1I` [Bobel-25, 3-methyl-2,4-6-triiodophenol]: the inhibition at 25 µM in data set [1] was determined as 97%.

For the molecule `CCc1c(I)cc(I)c(O)c1I` [Bobel-26, 3-ethyl-2,4,6-triiodophenol], the inhibition at 25 µM in data set [1] stood at 94%.

`Oc1c(I)cc(I)c(F)c1I` [Bobel-29, 3-fluoro-2,4,6-triiodophenol]: in data set [1], the inhibition at 25 µM is 100%.

With `Oc1c(I)cc(I)c(Cl)c1I` [Bobel-30, 3-chloro-2,4,6-triiodophenol], in data set [1], the inhibition at 25 µM is 90%.

Consider `CC(Cc1ccc(O)c(O)c1)C(C)Cc1ccc(O)c(O)c1` (centres unmarked) [NDGA, nordihydroguayaretic acid], for which the 5-LO inhibition entry in data set [2] is reported as “potent 5-LO inhibitor”. In data set [3], the inhibition of dioxygenases result is given as “inhibitor of all dioxygenases”.

With `CC(C(=O)O)c1ccc2oc(-c3ccc(Cl)cc3)nc2c1` (centres unmarked) [benoxaprofen, reference compound], in data set [4], the toxicity result is “much too toxic”. In data set [1], the “concentration of biosynthesis products versus concentration of the drug” value is “decreased in approximately linear with the concentration of the drug used” and the IC50 came out at 92 µM.

Consider `CC(=O)N1CCN(c2ccc(OCC3COC(Cn4ccnc4)(c4ccc(Cl)cc4Cl)O3)cc2)CC1` (centres unmarked) [ketaconozale, ketoconazole, reference compound], for which, in data set [1], the “concentration of biosynthesis products versus concentration of the drug” value is listed as “decreased in approximately linear with the concentration of the drug used” and the IC50 was found to be 102 µM.

For the molecule `COc1c(OC)c(OC(C)=O)c2cc(Cl)ccc2c1OC(C)=O` [lonapalene], the toxicity entry in data set [4] is “much too toxic”.
